Data reported in the NIST ThermoML archive (doi:10.1021/je050414d).
Several values for one entry are separate records, joined by “and”; a condition that tells them apart may be missing. Identical values can stand only once.

Assays:
[1] = 101 kPa, Liquid; for viscosity: Capillary tube (Ostwald / Ubbelohde) method
[2] = xn = mol fraction of the nth substance listed; conditions: 101 kPa, Liquid, x2 = 0; for viscosity: Capillary tube (Ostwald / Ubbelohde) method

CCOC(=O)OCC [diethyl carbonate]
[1]
Conditions | mass density [kg/m3] | viscosity
293.15 K | 975 | 0.801 mPa·s and 0.8 mPa·s
298.15 K | 968.97 | 0.746 mPa·s
303.15 K | 962.39 | 0.695 mPa·s
313.15 K | 952.32 | 0.61 mPa·s
323.15 K | 939.78 | 0.541 mPa·s
333.15 K | 928.69 | 0.483 mPa·s
343.15 K | 916.33 | 0.435 mPa·s
353.15 K | 905.02 | 0.393 mPa·s
363.15 K | 893.71 | 0.358 mPa·s

CO [methanol]
[1]
Conditions | mass density [kg/m3] | viscosity [mPa·s]
293.15 K | 791.54 | 0.582
298.15 K | 786.83 | 0.55
303.15 K | 782.12 | 0.512
313.15 K | 772.6 | 0.448
323.15 K | 762.97 | 0.395
333.15 K | 749.69 | 0.351

CO [methanol] + CCOC(=O)OCC
[2]
Conditions | mass density [kg/m3] | viscosity [mPa·s]
293.15 K | 791.54 | 0.582
298.15 K | 786.83 | 0.55
303.15 K | 782.12 | 0.512
313.15 K | 772.6 | 0.448
323.15 K | 762.97 | 0.395
333.15 K | 749.69 | 0.351

CC(C)O [propan-2-ol]
[1]
Conditions | mass density [kg/m3] | viscosity [mPa·s]
293.15 K | 785.28 | 2.382
298.15 K | 780.69 | 2.069
303.15 K | 776.15 | 1.743
313.15 K | 766.34 | 1.288
323.15 K | 755.66 | 1.002
333.15 K | 745.51 | 0.789
343.15 K | 735.02 | 0.626

CC(C)O [propan-2-ol] + CCOC(=O)OCC
[2]
Conditions | mass density [kg/m3] | viscosity [mPa·s]
293.15 K | 785.28 | 2.382
298.15 K | 780.69 | 2.069
303.15 K | 776.15 | 1.743
313.15 K | 766.34 | 1.288
323.15 K | 755.66 | 1.002
333.15 K | 745.51 | 0.789
343.15 K | 735.02 | 0.626

Cc1ccccc1 [toluene]
[1]
Conditions | mass density [kg/m3] | viscosity [mPa·s]
298.15 K | 862.01 | 0.554
303.15 K | 858.32 | 0.525
313.15 K | 848.92 | 0.47
323.15 K | 838.75 | 0.423
333.15 K | 829.93 | 0.385
343.15 K | 820.3 | 0.35
353.15 K | 810.54 | 0.31
363.15 K | 797.68 | 0.286

Cc1ccccc1 [toluene] + CCOC(=O)OCC
[2]
Conditions | mass density [kg/m3] | viscosity [mPa·s]
298.15 K | 862.01 | 0.554
303.15 K | 858.32 | 0.525
313.15 K | 848.92 | 0.47
323.15 K | 838.75 | 0.423
333.15 K | 829.93 | 0.385
343.15 K | 820.3 | 0.35
353.15 K | 810.54 | 0.31
363.15 K | 797.68 | 0.286
